Data on 104 molecules can be found in the Kinase Knowledgebase extract (Sharma et al. 2016).

Broadly, the Ki is the equilibrium dissociation constant of an inhibitor or competing ligand from its target. Lower therefore signals a stronger hold on the target.

PIK3CG (human), sequence (P48736 whole entry, looked up): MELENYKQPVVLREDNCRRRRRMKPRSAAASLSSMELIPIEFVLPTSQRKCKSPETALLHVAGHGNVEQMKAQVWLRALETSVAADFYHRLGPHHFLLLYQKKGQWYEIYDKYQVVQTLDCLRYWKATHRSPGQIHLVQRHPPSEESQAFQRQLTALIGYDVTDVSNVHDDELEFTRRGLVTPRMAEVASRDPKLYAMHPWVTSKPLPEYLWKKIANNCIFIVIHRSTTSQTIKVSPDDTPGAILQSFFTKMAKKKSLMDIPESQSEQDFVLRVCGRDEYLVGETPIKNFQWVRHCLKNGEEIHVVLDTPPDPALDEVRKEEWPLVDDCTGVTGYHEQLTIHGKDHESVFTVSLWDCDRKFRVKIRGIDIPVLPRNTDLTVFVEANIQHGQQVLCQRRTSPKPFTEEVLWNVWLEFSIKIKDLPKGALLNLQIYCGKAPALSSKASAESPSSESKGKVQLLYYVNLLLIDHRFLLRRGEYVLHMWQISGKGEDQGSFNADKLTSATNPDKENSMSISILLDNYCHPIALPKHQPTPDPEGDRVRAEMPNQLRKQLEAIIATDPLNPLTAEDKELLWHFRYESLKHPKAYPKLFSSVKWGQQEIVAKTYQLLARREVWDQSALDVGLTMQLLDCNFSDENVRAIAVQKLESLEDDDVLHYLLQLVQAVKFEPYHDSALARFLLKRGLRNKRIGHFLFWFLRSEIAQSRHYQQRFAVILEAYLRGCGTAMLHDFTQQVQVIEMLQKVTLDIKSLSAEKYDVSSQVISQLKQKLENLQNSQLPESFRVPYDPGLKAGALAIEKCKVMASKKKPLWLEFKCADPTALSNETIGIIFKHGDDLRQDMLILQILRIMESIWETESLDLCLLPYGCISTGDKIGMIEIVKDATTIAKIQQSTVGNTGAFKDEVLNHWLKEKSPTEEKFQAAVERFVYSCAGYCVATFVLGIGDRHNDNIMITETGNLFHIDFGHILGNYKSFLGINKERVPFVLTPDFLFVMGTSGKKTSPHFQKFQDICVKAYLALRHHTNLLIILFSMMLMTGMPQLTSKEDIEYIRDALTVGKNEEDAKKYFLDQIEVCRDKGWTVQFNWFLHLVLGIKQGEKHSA

This experiment concerns the target PIK3CG (human) (UniProt P48736). Put plainly: Assessment of PIK3CG Kinase Activity.
`CC(=O)Nc1nc(C)c(C#Cc2cccc(N)c2)s1` returned a Ki of 50 to 250 nM.
Molecule `Cc1nc(NC(=O)NCCc2ccncc2)sc1C#Cc1ccncc1` registered a Ki of 50 to 250 nM.
`Cc1nc(NC(=O)NCCOCC2CC2)sc1C#Cc1ccnc2ccccc12` returned a Ki of less than 50 nM.
The molecule `Cc1nc(NC(=O)NCc2ccccn2)sc1C#Cc1ccncc1` registered a Ki of less than 50 nM.
Turning to `COc1ccc(C#Cc2sc(NC(C)=O)nc2C)cc1`, the Ki fell in the range of 50 to 250 nM.
For the molecule `CC(=O)Nc1nc(C)c(C#Cc2cncc(C(F)(F)F)c2)s1`, the inhibitory constant (Ki) was 50 to 250 nM.
Take `COc1cc(C#Cc2sc(NC(=O)NCCOCC3CC3)nc2C)cnc1Cl`: the Ki was in the range of 50 to 250 nM.
For `Cc1nc(NC(=O)NCCOCC2CC2)sc1C#Cc1cc(F)ncc1Cl` the value was less than 50 nM.
In the case of `Cc1nc(NC(=O)NC[C@H](C)O)sc1C#Cc1ccncc1`, the Ki was less than 50 nM.
On to `Cc1nc(NC(=O)CCNC(=O)c2ccccn2)sc1C#Cc1cccnc1`, for which the Ki was less than 50 nM.
Regarding `COc1cc(C#Cc2sc(NC(=O)NCCOCC3CC3)nc2C)cnc1OC`, the Ki is less than 50 nM.
As to `Cc1nc(NC(=O)NCCO)sc1C#Cc1ccncc1`, the Ki is less than 50 nM.
`CCOC(=O)N1CCC(OC(=O)Nc2nc(C)c(C#Cc3ccncc3)s2)CC1` returned a Ki of 50 to 250 nM.
`CC(=O)Nc1nc(C)c(C#Cc2cccc(C)c2)s1` returned an inhibition constant (Ki) of 50 to 250 nM.
Turning to `Cc1nc(NC(=O)NCC#N)sc1C#Cc1ccncc1`, the Ki was less than 50 nM.
In turn, `COc1ncc(C#Cc2sc(NC(=O)NCCOCC3CC3)nc2C)cn1` had a Ki of less than 50 nM.
`Cc1nc(NC(=O)NCCCOCC2CC2)sc1C#Cc1ccncc1` came in with a Ki of 50 to 250 nM.
With `CCc1ccc(CNC(=O)Nc2nc(C)c(C#Cc3ccncc3)s2)nc1`, the Ki was less than 50 nM.
Molecule `CCn1c(C)nc(CCNC(=O)Nc2nc(C)c(C#Cc3ccncc3)s2)c1Cl` returned an inhibition constant (Ki) of less than 50 nM.
Consider `Cc1nc(NC(=O)[C@@H]2CCC(=O)N2)sc1C#Cc1ccncc1`, for which the Ki lay within 50 to 250 nM.
For `COc1ccc(CNC(=O)Nc2nc(C)c(C#Cc3ccncc3)s2)cc1` the value was less than 50 nM; for `Cc1nc(NC(=O)NCCOCC2CC2)sc1C#Cc1cnc2ccccc2c1`, 50 to 250 nM.
As for `Cc1nc(NC(=O)NCCOCCN2CCOCC2)sc1C#Cc1ccncc1`, the Ki fell in the range of 50 to 250 nM.
`COC1CN(C(=O)Nc2nc(C)c(C#Cc3ccncc3)s2)C1` gave a Ki of less than 50 nM.
On to `COc1ccc(C#Cc2sc(NC(=O)NCCOCC3CC3)nc2C)cc1OC`, for which the Ki was less than 50 nM.
For `Cc1nc(NC(=O)NCCc2nccs2)sc1C#Cc1ccncc1` the value was 50 to 250 nM; for `Cc1nc(NC(=O)NCCOCC2CC2)sc1C#Cc1cccnc1Cl`, less than 50 nM; for `Cc1nc(NC(=O)NCC2CCCCO2)sc1C#Cc1ccncc1` (centres undefined), less than 50 nM.
Molecule `Cc1nc(NC(=O)NCCOCC2CC2)sc1C#Cc1cncc(C(F)(F)F)c1` yielded an inhibition constant Ki of 50 to 250 nM.
As for `Cc1nc(NC(=O)NC[C@H](C)OCC2CC2)sc1C#Cc1cncc(F)c1`, the Ki is less than 50 nM.
The molecule `COc1ccc(OCCNC(=O)Nc2nc(C)c(C#Cc3ccncc3)s2)cc1` showed a Ki of less than 50 nM.
Molecule `CCc1cnc(CCNC(=O)Nc2nc(C)c(C#Cc3cncc(OC)c3)s2)s1` had a Ki of less than 50 nM.
The molecule `Cc1nc(NC(=O)NCCOc2cccnc2)sc1C#Cc1ccnc(Cl)c1` had a Ki of 50 to 250 nM.
`Cc1nc(NC(=O)NC[C@H](C)OCC2CC2)sc1C#Cc1ccc2ncccc2c1`: the Ki was less than 50 nM.
`CCCCOCCCNC(=O)Nc1nc(C)c(C#Cc2ccncc2)s1`: the Ki is less than 50 nM.
As for `Cc1nc(NC(=O)NC[C@H](C)OCC2CC2)sc1C#Cc1ccc2nccnc2c1`, the Ki is less than 50 nM.
`CCCn1cnc(CCNC(=O)Nc2nc(C)c(C#Cc3ccncc3)s2)c1` gave an inhibition constant Ki of less than 50 nM.
Molecule `Cc1nc(NC(=O)NCCC(=O)N(C)CC(F)(F)F)sc1C#Cc1ccccc1` yielded a Ki of 50 to 250 nM.
In the case of `Cc1nc(NC(=O)NCCc2ccccn2)sc1C#Cc1ccncc1` it was less than 50 nM.
Regarding `Cc1nc(NC(=O)CCCC(=O)NCC(F)(F)F)sc1C#Cc1ccncc1`, the Ki lay in the range of 50 to 250 nM.
For `COC(=O)c1ccn2cc(CCNC(=O)Nc3nc(C)c(C#Cc4ccncc4)s3)nc2c1` the value was 50 to 250 nM.
For the molecule `CC(=O)Nc1nc(C)c(C#Cc2ccccc2)s1`, the Ki lay in the range of 50 to 250 nM.
`Cc1nc(NC(=O)NCCOCC2CC2)sc1C#Cc1cnc2ncccc2c1` returned a Ki of less than 50 nM.
`COc1cc(C#Cc2sc(NC(=O)NC[C@H](C)OCC3CC3)nc2C)cnc1OC` registered a Ki of less than 50 nM.
On to `Cc1nc(NC(=O)NCCC(=O)NC(C)(C)C)sc1C#Cc1ccncc1`, for which the Ki is less than 50 nM.
For the molecule `CCCO[C@@H](C)CNC(=O)Nc1nc(C)c(C#Cc2ccncc2)s1`, the Ki is less than 50 nM.
Molecule `Cc1nc(NC(=O)CCCC(=O)NC(C)(C)C)sc1C#Cc1ccncc1` displayed a Ki of 50 to 250 nM.
Take `CC(=O)Nc1nc(C)c(C#Cc2ccccc2C)s1`: the inhibitory constant (Ki) was less than 50 nM.
In the case of `COCCNC(=O)Nc1nc(C)c(C#Cc2ccncc2)s1` it was less than 50 nM; in that of `CCc1nc(NC(C)=O)sc1C#Cc1ccncc1`, 50 to 250 nM.
For the molecule `Cc1nc(NC(=O)NCCc2cn(CC(F)F)cn2)sc1C#Cc1ccccc1Cl`, the Ki was in the range of 50 to 250 nM.
For the molecule `Cc1nc(NC(=O)NCCc2cn(CC(F)F)cn2)sc1C#Cc1ccccc1`, the inhibition constant Ki lay within 50 to 250 nM.
In the case of `COc1cc(C#Cc2sc(NC(=O)NCCOc3cccnc3)nc2C)cnc1OC`, the Ki was less than 50 nM.
With `COc1cccc(C#Cc2sc(NC(C)=O)nc2C)c1`, the Ki was 50 to 250 nM.
In the case of `Cc1nc(NC(=O)NCCc2ncn(CC(F)F)c2Cl)sc1C#Cc1ccncc1`, the Ki is less than 50 nM.
The molecule `COc1ccc(C#Cc2sc(NC(=O)NC[C@H](C)OCC3CC3)nc2C)cn1` yielded a Ki of less than 50 nM.
As for `Cc1nc(NC(=O)NCCOCC2CCCC2)sc1C#Cc1ccncc1`, the Ki was less than 50 nM.
With `CC(=O)N1CC(C(=O)Nc2nc(C)c(C#Cc3ccncc3)s2)C1`, the Ki lay in the range of 50 to 250 nM.
`Cc1nc(NC(=O)NCC2Cc3ccccc3O2)sc1C#Cc1ccncc1` (centres undefined) showed an inhibition constant (Ki) of less than 50 nM.
For `CC(=O)Nc1ccc(C#Cc2sc(NC(=O)NCCOCC3CC3)nc2C)cn1` the value was 50 to 250 nM.
In the case of `CCc1ccc(CCNC(=O)Nc2nc(C)c(C#Cc3ccncc3)s2)nc1` it was less than 50 nM; in that of `Cc1nc(NC(=O)COc2ccccc2)sc1C#Cc1ccncc1`, 50 to 250 nM; in that of `CCn1cnc(CCNC(=O)Nc2nc(C)c(C#Cc3ccncc3)s2)c1`, less than 50 nM.
Molecule `Cc1ccc(OCCNC(=O)Nc2nc(C)c(C#Cc3ccncc3)s2)cc1` gave a Ki of less than 50 nM.
For `CC(=O)Nc1nc(C)c(C#Cc2cncn2C)s1` the value was 50 to 250 nM.
`Cc1nc(NC(=O)NCCc2cn(CC(F)F)cn2)sc1C#Cc1cccnc1` came in with a Ki of less than 50 nM.
Consider `COc1cncc(C#Cc2sc(NC(=O)NC[C@H](C)OCC3CC3)nc2C)c1`, for which the Ki was less than 50 nM.
Take `COc1ccc(C#Cc2sc(NC(=O)NCCOCC3CC3)nc2C)cn1`: the Ki was 50 to 250 nM.
For `COc1cc(C#Cc2sc(NC(=O)NCCOCC3CC3)nc2C)cc(OC)c1` the value was 50 to 250 nM; for `COC(=O)CCCC(=O)Nc1nc(C)c(C#Cc2ccncc2)s1`, 50 to 250 nM.
`Cc1nc(NC(=O)CNC(=O)c2ccccn2)sc1C#Cc1cccnc1` showed a Ki of less than 50 nM.
In the case of `CCOC(=O)[C@H]1CCC[C@H]1NC(=O)Nc1nc(C)c(C#Cc2ccncc2)s1` it was 50 to 250 nM; in that of `CC(=O)Nc1nc(C)c(C#Cc2ccc(N)cc2)s1`, 50 to 250 nM; in that of `CCCOCCNC(=O)Nc1nc(C)c(C#Cc2ccncc2)s1`, less than 50 nM.
In turn, `COc1cncc(C#Cc2sc(NC(C)=O)nc2C)c1` returned an inhibitory constant (Ki) of less than 50 nM.
On to `COc1cncc(C#Cc2sc(NC(=O)NC[C@H](C)O)nc2C)c1`, for which the Ki is less than 50 nM.
As to `Cc1nc(NC(=O)NCCOCC2CC2)sc1C#Cc1cnc(Cl)c(F)c1`, the inhibition constant Ki was in the range of 50 to 250 nM.
`Cc1nc(NC(=O)NCCOCC2CC2)sc1C#Cc1ccncc1F`: the inhibition constant Ki was less than 50 nM.
`CCC(O)CNC(=O)Nc1nc(C)c(C#Cc2cncc(OC)c2)s1` (centres undefined) displayed a Ki of less than 50 nM.
The molecule `Cc1nc(NC(=O)NCCOCC2CC2)sc1C#Cc1ccc(Cl)nc1` showed a Ki of 50 to 250 nM.
Take `Cc1nc(NC(=O)NCCOc2ccccc2)sc1C#Cc1ccncc1`: the Ki is less than 50 nM.
In the case of `CCCOCCOC(=O)Nc1nc(C)c(C#Cc2ccncc2)s1` it was less than 50 nM.
`Cc1nc(NC(=O)NCCOc2cccc(F)c2)sc1C#Cc1ccncc1`: the Ki was less than 50 nM.
On to `Cc1nc(NC(=O)NC2COc3ccccc3C2)sc1C#Cc1ccncc1` (centres undefined), for which the Ki was 50 to 250 nM.
In the case of `Cc1nc(NC(=O)NCCOCC2CC2)sc1C#Cc1ccnn1C` it was 50 to 250 nM.
For `COc1cc(C#Cc2sc(NC(=O)NCCn3cnc(C(F)(F)F)c3)nc2C)cnc1OC` the value was less than 50 nM.
Regarding `CCOC(=O)CCCNC(=O)Nc1nc(C)c(C#Cc2ccncc2)s1`, the Ki is less than 50 nM.
For `Cc1nc(NC(=O)NCC[S+](C)[O-])sc1C#Cc1ccncc1` (centres undefined) the value was less than 50 nM; for `Cc1nc(NC(=O)NCC(F)(F)F)sc1C#Cc1ccncc1`, 50 to 250 nM.
With `CC(=O)Nc1nc(C)c(C#Cc2ccsc2)s1`, the Ki is 50 to 250 nM.
In the case of `CC(=O)Nc1nc(C)c(C#Cc2sc(NC(=O)NCCOCC3CC3)nc2C)s1`, the Ki was 50 to 250 nM.
Consider `Cc1nc(NC(=O)NCCOC(=O)c2ccccc2)sc1C#Cc1ccncc1`, for which the Ki was less than 50 nM.
In the case of `Cc1nc(NC(=O)NCCn2cc(Cl)cn2)sc1C#Cc1ccncc1`, the Ki was less than 50 nM.
The molecule `COc1ccccc1OCCNC(=O)Nc1nc(C)c(C#Cc2ccncc2)s1` came in with an inhibition constant (Ki) of less than 50 nM.
For `Cc1cccc(OCCNC(=O)Nc2nc(C)c(C#Cc3ccncc3)s2)c1` the value was less than 50 nM; for `Cc1nc(NC(=O)NCCOCC2CC2)sc1C#Cc1ccc2nccnc2c1`, less than 50 nM.
Regarding `CCCO[C@@H](C)CNC(=O)Nc1nc(C)c(C#Cc2cncc(OC)c2)s1`, the Ki was less than 50 nM.
For the molecule `Cc1cccc(NC(=O)CC(=O)Nc2nc(C)c(C#Cc3ccncc3)s2)c1`, the inhibition constant Ki lay in the range of 50 to 250 nM.
Molecule `Cc1nc(NC(=O)NCCC#N)sc1C#Cc1ccncc1` gave a Ki of less than 50 nM.
Turning to `Cc1nc(NC(=O)NCCOCC2CC2)sc1C#Cc1cc(Cl)ncc1F`, the Ki is less than 50 nM.
For `Cc1nc(NC(=O)NCCCOCC(F)(F)F)sc1C#Cc1ccncc1` the value was 50 to 250 nM; for `Cc1nc(NC(=O)NCC2CCCO2)sc1C#Cc1ccncc1` (centres undefined), less than 50 nM; for `Cc1nc(NC(=O)NCCC2CCCCO2)sc1C#Cc1ccncc1` (centres undefined), less than 50 nM.
For `Cc1nc(NC(=O)NCCOCC2CC2)sc1C#Cc1cccc2ncccc12` the value was less than 50 nM.
